Measured values from patent US20020137929A1, “1 - (3-heterocyclylphenyl) isothiourea, -isourea, -guanidine and -amidine herbicidal agents” (Intellectual Property Department, BASF Aktiengesellschaft, priority 1998, published 2002).

Tests used:
[1] = system: GALAP (Galium); experiment: Preemergence herbicidal evaluation; format: in vivo, Galium aparine; conditions: rated 4-5 weeks after treatment
Outline: (§1)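 Steps: mix seeds into potting soil; plant atop ~1 inch soil; spray compound in aqueous acetone (~0.0156-0.500 kg/ha equivalent); maintain in greenhouse with watering; rate visually 0-9 versus control at 4-5 weeks.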

[2] = system: SETVI (Foxtail, Green); experiment: Preemergence herbicidal evaluation; format: in vivo, Setaria viridis; conditions: rated 4-5 weeks after treatment
Outline: as §1

[3] = system: ECHORC (Watergrass (Calif.)); experiment: Postemergence weed control under flooded paddy conditions; format: in vivo, Echinochloa oryzoides; conditions: postemergence weeds, 3-4 weeks after treatment
Outline: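 Injury ratings (0–9 scale covering stand, vigor, malformation, size, chlorosis and overall appearance versus control) were made three to four weeks after treatment. Test material, about 0.0313 to 0.500 kg/ha a.i. in 50/50 v/v aqueous/acetone, was added to flood water 1.5 to 3 cm deep over 3 to 5 cm weeds and 1.5 to 2.5 leaf rice.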

[4] = system: AMBEL (Ragweed, Common); experiment: Postemergence herbicidal evaluation; format: in vivo, Ambrosia artemisifolia
Outline: (§2)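 Scores (0–9) reflect plant stand, vigor, malformation, size, chlorosis and general appearance relative to control, read 4 to 5 weeks after treatment and averaged where tests were repeated. Application: about 0.0156–0.500 kg/ha sprayed at 40 psi onto two-week seedlings.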

[5] = system: ZEAMX (Corn, Field); experiment: Postemergence herbicidal evaluation; format: in vivo, Zea mays
Outline: as §2

[6] = system: SAGPY (Arrowhead (Pygmaea)); experiment: Preemergence weed control under flooded paddy conditions; format: in vivo, Sagittaria pygmaea; conditions: rated 3-4 weeks after treatment
Outline: (§3)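 Using flooded silt loam (water 1.5 to 3 cm deep), seeds sown in the top 0.5 cm were exposed preemergence to compound pipetted into the flood at about 0.0313 to 0.500 kg/ha. Effects were scored 0-9 by eye three to four weeks later.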

[7] = system: CYPSE (Flatsedge); experiment: as above; format: in vivo, Cyperus serotinus; conditions: rated 3-4 weeks after treatment
Outline: as §3

[8] = system: GLXMAW (Soybean, Williams); experiment: Postemergence herbicidal evaluation; format: in vivo, Glycine max, (L.) Merr. cv Williams
Outline: as §2

[9] = system: ECHCG (Barnyardgrass); experiment: Preemergence herbicidal evaluation; format: in vivo, Echinochloa crus-galli; conditions: rated 4-5 weeks after treatment
Outline: as §1

[10] = system: AMBEL (Ragweed, Common); experiment: Preemergence herbicidal evaluation; format: in vivo, Ambrosia artemisifolia; conditions: rated 4-5 weeks after treatment
Outline: as §1

[11] = system: IPOHE (Morningglory, Ivyleaf); experiment: Postemergence herbicidal evaluation; format: in vivo, Ipomoea hederacea
Outline: as §2

[12] = system: CASOB (Sicklepod); experiment: Preemergence herbicidal evaluation; format: in vivo, Cassia obtusifolia; conditions: rated 4-5 weeks after treatment
Outline: as §1

[13] = system: ABUTH (Velvetleaf); experiment: Preemergence herbicidal evaluation; format: in vivo, Abutilon theophrasti; conditions: rated 4-5 weeks after treatment
Outline: as §1

[14] = system: GLXMAW (Soybean, Williams); experiment: Preemergence herbicidal evaluation; format: in vivo, Glycine max, (L.) Merr. cv Williams; conditions: rated 4-5 weeks after treatment
Outline: as §1

## O=C(O)CC1SC(=Nc2cc(N3C(=O)C4=C(CCCC4)C3=O)c(F)cc2Cl)N(CC(=O)O)C1=O (stereo not drawn) [Compound 48, 2-{[2-Chloro-5-(1-cyclohexene-1,2-dicarboximido)-4-fluorophenyl]imino}-4-oxo-3,5-thiazolidinediacetic acid]
[1]; rate 0.0156 kg/ha
  Preemergence herbicidal rating GALAP: 0.0
[1]; rate 0.0313 kg/ha
  Preemergence herbicidal rating GALAP: 0.0
[1]; rate 0.0625 kg/ha
  Preemergence herbicidal rating GALAP: 0.0
[1]; rate 0.1250 kg/ha
  Preemergence herbicidal rating GALAP: 0.0
[1]; rate 0.2500 kg/ha
  Preemergence herbicidal rating GALAP: 0.0
[2]; rate 0.0156 kg/ha
  Preemergence herbicidal rating SETVI: 0.0
[2]; rate 0.0313 kg/ha
  Preemergence herbicidal rating SETVI: 0.0
[2]; rate 0.0625 kg/ha
  Preemergence herbicidal rating SETVI: 0.0
[2]; rate 0.1250 kg/ha
  Preemergence herbicidal rating SETVI: 0.0
[2]; rate 0.2500 kg/ha
  Preemergence herbicidal rating SETVI: 0.0
[3]; rate 0.1250 kg/ha
  Herbicidal rating ECHORC: 3.0
[3]; rate 0.2500 kg/ha
  Herbicidal rating ECHORC: 6.0
[4]; Rate 0.0156 kg/ha
  Postemergence herbicidal rating AMBEL: 3.0
[4]; Rate 0.0313 kg/ha
  Postemergence herbicidal rating AMBEL: 5.0
[4]; Rate 0.0625 kg/ha
  Postemergence herbicidal rating AMBEL: 9.0
[5]; Rate 0.0156 kg/ha
  Postemergence herbicidal rating ZEAMX: 5.5
[5]; Rate 0.0313 kg/ha
  Postemergence herbicidal rating ZEAMX: 5.5
[5]; Rate 0.0625 kg/ha
  Postemergence herbicidal rating ZEAMX: 6.5
[6]; 0.1250 kg/ha
  Herbicidal rating SAGPY: 3.0
[6]; 0.2500 kg/ha
  Herbicidal rating SAGPY: 6.0
[7]; 0.1250 kg/ha
  Herbicidal rating CYPSE: 0.0
[7]; 0.2500 kg/ha
  Herbicidal rating CYPSE: 0.0
[8]; Rate 0.0156 kg/ha
  Postemergence herbicidal rating GLXMAW: 5.5
[8]; Rate 0.0313 kg/ha
  Postemergence herbicidal rating GLXMAW: 6.0
[8]; Rate 0.0625 kg/ha
  Postemergence herbicidal rating GLXMAW: 7.5
[9]; rate 0.0156 kg/ha
  Preemergence herbicidal rating ECHCG: 0.0
[9]; rate 0.0313 kg/ha
  Preemergence herbicidal rating ECHCG: 0.0
[9]; rate 0.0625 kg/ha
  Preemergence herbicidal rating ECHCG: 0.0
[9]; rate 0.1250 kg/ha
  Preemergence herbicidal rating ECHCG: 0.0
[9]; rate 0.2500 kg/ha
  Preemergence herbicidal rating ECHCG: 0.0
[10]; rate 0.0156 kg/ha
  Preemergence herbicidal rating AMBEL: 0.0
[10]; rate 0.0313 kg/ha
  Preemergence herbicidal rating AMBEL: 0.0
[10]; rate 0.0625 kg/ha
  Preemergence herbicidal rating AMBEL: 0.0
[10]; rate 0.1250 kg/ha
  Preemergence herbicidal rating AMBEL: 0.0
[10]; rate 0.2500 kg/ha
  Preemergence herbicidal rating AMBEL: 4.0
[11]; Rate 0.0156 kg/ha
  Postemergence herbicidal rating IPOHE: 9.0
[11]; Rate 0.0313 kg/ha
  Postemergence herbicidal rating IPOHE: 9.0
[11]; Rate 0.0625 kg/ha
  Postemergence herbicidal rating IPOHE: 9.0
[12]; rate 0.0156 kg/ha
  Preemergence herbicidal rating CASOB: 0.0
[12]; rate 0.0313 kg/ha
  Preemergence herbicidal rating CASOB: 0.0
[12]; rate 0.0625 kg/ha
  Preemergence herbicidal rating CASOB: 0.0
[12]; rate 0.1250 kg/ha
  Preemergence herbicidal rating CASOB: 0.0
[12]; rate 0.2500 kg/ha
  Preemergence herbicidal rating CASOB: 3.0
[13]; rate 0.0156 kg/ha
  Preemergence herbicidal rating ABUTH: 0.0
[13]; rate 0.0313 kg/ha
  Preemergence herbicidal rating ABUTH: 0.0
[13]; rate 0.0625 kg/ha
  Preemergence herbicidal rating ABUTH: 4.0
[13]; rate 0.1250 kg/ha
  Preemergence herbicidal rating ABUTH: 9.0
[13]; rate 0.2500 kg/ha
  Preemergence herbicidal rating ABUTH: 9.0
[14]; rate 0.0156 kg/ha
  Preemergence herbicidal rating GLXMAW: 0.0
[14]; rate 0.0313 kg/ha
  Preemergence herbicidal rating GLXMAW: 0.0
[14]; rate 0.0625 kg/ha
  Preemergence herbicidal rating GLXMAW: 0.0
[14]; rate 0.1250 kg/ha
  Preemergence herbicidal rating GLXMAW: 0.0
[14]; rate 0.2500 kg/ha
  Preemergence herbicidal rating GLXMAW: 2.0

## CCOC(=O)COc1ccccc1CC1S/C(=N/c2cc(-n3c(=O)cc(C(F)(F)F)n(C)c3=O)c(F)cc2Cl)N(CC(=O)OCC)C1=O (stereo not drawn) [Compound 42, 2-{{2-Chloro-5-[3,6-dihydro-3-methyl-2,6-dioxo-4-(trifluoromethyl)-1(2H)-pyrimidinyl]-4-fluoro-phenyl}imino}-5-(o-hydroxybenzyl)-4-oxo-3-thiazolidineacetic acid, ethyl ester, ester with ethyl glycolate]
[1]; rate 0.0313 kg/ha
  Preemergence herbicidal rating GALAP: 0.0
[1]; rate 0.0625 kg/ha
  Preemergence herbicidal rating GALAP: 0.0
[1]; rate 0.1250 kg/ha
  Preemergence herbicidal rating GALAP: 0.0
[1]; rate 0.2500 kg/ha
  Preemergence herbicidal rating GALAP: 0.0
[2]; rate 0.0313 kg/ha
  Preemergence herbicidal rating SETVI: 0.0
[2]; rate 0.0625 kg/ha
  Preemergence herbicidal rating SETVI: 1.0
[2]; rate 0.1250 kg/ha
  Preemergence herbicidal rating SETVI: 0.0
[2]; rate 0.2500 kg/ha
  Preemergence herbicidal rating SETVI: 0.0
[3]; rate 0.0313 kg/ha
  Herbicidal rating ECHORC: 5.0
[3]; rate 0.0625 kg/ha
  Herbicidal rating ECHORC: 5.0
[3]; rate 0.1250 kg/ha
  Herbicidal rating ECHORC: 5.0
[3]; rate 0.2500 kg/ha
  Herbicidal rating ECHORC: 6.0
[4]; Rate 0.0158 kg/ha
  Postemergence herbicidal rating AMBEL: 9.0
[4]; Rate 0.0315 kg/ha
  Postemergence herbicidal rating AMBEL: 9.0
[4]; Rate 0.0630 kg/ha
  Postemergence herbicidal rating AMBEL: 9.0
[5]; Rate 0.0158 kg/ha
  Postemergence herbicidal rating ZEAMX: 4.5
[5]; Rate 0.0315 kg/ha
  Postemergence herbicidal rating ZEAMX: 4.5
[5]; Rate 0.0630 kg/ha
  Postemergence herbicidal rating ZEAMX: 4.5
[6]; 0.0313 kg/ha
  Herbicidal rating SAGPY: 0.0
[6]; 0.0625 kg/ha
  Herbicidal rating SAGPY: 0.0
[6]; 0.1250 kg/ha
  Herbicidal rating SAGPY: 0.0
[6]; 0.2500 kg/ha
  Herbicidal rating SAGPY: 3.0
[7]; 0.0313 kg/ha
  Herbicidal rating CYPSE: 0.0
[7]; 0.0625 kg/ha
  Herbicidal rating CYPSE: 0.0
[7]; 0.1250 kg/ha
  Herbicidal rating CYPSE: 0.0
[7]; 0.2500 kg/ha
  Herbicidal rating CYPSE: 0.0
[8]; Rate 0.0158 kg/ha
  Postemergence herbicidal rating GLXMAW: 5.5
[8]; Rate 0.0315 kg/ha
  Postemergence herbicidal rating GLXMAW: 6.0
[8]; Rate 0.0630 kg/ha
  Postemergence herbicidal rating GLXMAW: 6.5
[9]; rate 0.0313 kg/ha
  Preemergence herbicidal rating ECHCG: 0.0
[9]; rate 0.0625 kg/ha
  Preemergence herbicidal rating ECHCG: 0.0
[9]; rate 0.1250 kg/ha
  Preemergence herbicidal rating ECHCG: 0.0
[9]; rate 0.2500 kg/ha
  Preemergence herbicidal rating ECHCG: 0.0
[10]; rate 0.0313 kg/ha
  Preemergence herbicidal rating AMBEL: 0.0
[10]; rate 0.0625 kg/ha
  Preemergence herbicidal rating AMBEL: 0.0
[10]; rate 0.1250 kg/ha
  Preemergence herbicidal rating AMBEL: 0.0
[10]; rate 0.2500 kg/ha
  Preemergence herbicidal rating AMBEL: 6.0
[11]; Rate 0.0158 kg/ha
  Postemergence herbicidal rating IPOHE: 9.0
[11]; Rate 0.0315 kg/ha
  Postemergence herbicidal rating IPOHE: 9.0
[11]; Rate 0.0630 kg/ha
  Postemergence herbicidal rating IPOHE: 9.0
[12]; rate 0.0313 kg/ha
  Preemergence herbicidal rating CASOB: 0.0
[12]; rate 0.0625 kg/ha
  Preemergence herbicidal rating CASOB: 1.0
[12]; rate 0.1250 kg/ha
  Preemergence herbicidal rating CASOB: 0.0
[12]; rate 0.2500 kg/ha
  Preemergence herbicidal rating CASOB: 0.0
[13]; rate 0.0313 kg/ha
  Preemergence herbicidal rating ABUTH: 1.0
[13]; rate 0.0625 kg/ha
  Preemergence herbicidal rating ABUTH: 1.0
[13]; rate 0.1250 kg/ha
  Preemergence herbicidal rating ABUTH: 9.0
[13]; rate 0.2500 kg/ha
  Preemergence herbicidal rating ABUTH: 9.0
[14]; rate 0.0313 kg/ha
  Preemergence herbicidal rating GLXMAW: 0.0
[14]; rate 0.0625 kg/ha
  Preemergence herbicidal rating GLXMAW: 0.0
[14]; rate 0.1250 kg/ha
  Preemergence herbicidal rating GLXMAW: 1.0
[14]; rate 0.2500 kg/ha
  Preemergence herbicidal rating GLXMAW: 1.0
